One test concerns the target T1, hSERT (Homo sapiens, UniProt P31645).
T1 construct: expressed in transfected cells
The test is described as follows: Monoamine uptake assay (fluorescent substrate), hSERT. In kind it is cell-based. On the procedure: (§1) Human embryonic kidney (HEK) 293 cells stably expressing human DAT, NET, or SERT (kindly provided by Dr. Hoener from F. Hoffmann-La Roche Ltd., Basel, Switzerland) were cultured as described in [Zwartsen et al. (2017)].
(§2) Uptake activity of hNET, hDAT, and hSERT was measured using the Neurotransmitter Transporter Uptake Assay Kit from MDS Analytical Technologies (Sunnyvale, CA, United States) as described in detail previously ([Zwartsen et al., 2017]). The kit contained a mixture consisting of a fluorescent substrate, which resembles the biogenic amine neurotransmitters, and a masking dye that extinguishes extracellular fluorescence. Uptake of the fluorescent substrate, a measure of neurotransmitter transporter function, increases intracellular fluorescence, while extracellular fluorescence is blocked by the masking dye ([Jorgensen et al., 2008]). […]
(§3) On day 0, HEK 293 cells were seeded (60,000 cells/well) in clear-bottom black-walled 96-well plates coated with poly-L-lysine (PLL, 50 mg/L). […] During incubation, intracellular fluorescence was measured every 3 min. […] Effects of 3-MMC, 4-MMC, 4-MEC, methylone, pentedrone, MDPV, 3-MMCinternet, and 4-MECinternet were measured at final concentrations of 0.03–300/1000 μM. Fluorescence was measured with a microplate reader (Tecan Infinite M200 microplate; Tecan Trading Männedorf, Switzerland) at 37°C at 430/515 nm excitation/emission wavelength. […]

The target in another test is T2, hNET (Homo sapiens, UniProt P23975).
T2 construct: expressed in transfected cells
T2 sequence (P23975 whole entry): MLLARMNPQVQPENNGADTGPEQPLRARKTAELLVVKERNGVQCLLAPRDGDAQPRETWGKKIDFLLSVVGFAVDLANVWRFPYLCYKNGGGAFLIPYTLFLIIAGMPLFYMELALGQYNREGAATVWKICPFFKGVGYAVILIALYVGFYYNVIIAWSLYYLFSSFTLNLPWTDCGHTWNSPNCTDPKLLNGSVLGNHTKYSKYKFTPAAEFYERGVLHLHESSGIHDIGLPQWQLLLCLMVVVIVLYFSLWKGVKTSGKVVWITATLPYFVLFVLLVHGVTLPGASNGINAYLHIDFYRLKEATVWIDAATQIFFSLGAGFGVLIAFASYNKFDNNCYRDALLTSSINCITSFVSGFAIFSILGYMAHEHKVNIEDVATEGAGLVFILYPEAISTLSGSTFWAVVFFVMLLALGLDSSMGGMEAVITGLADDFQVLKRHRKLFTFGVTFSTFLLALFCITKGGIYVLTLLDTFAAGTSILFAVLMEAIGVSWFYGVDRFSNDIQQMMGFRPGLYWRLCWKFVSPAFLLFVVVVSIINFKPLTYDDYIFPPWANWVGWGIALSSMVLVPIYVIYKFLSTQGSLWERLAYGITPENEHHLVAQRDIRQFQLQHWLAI
The test is described as follows: Monoamine uptake assay (fluorescent substrate), hNET. Format: cell-based. Here is the method: as §1, §2, §3

Test [1] concerns rat primary cortical cultures. Further details: method as in Zwartsen et al., 2019. The conditions noted are these: value [CI], published previously ref Zwartsen et al., 2019, cited from earlier work.

Like-named read-outs stand apart in the source and are kept apart here.

T1 sequence (P31645 whole entry): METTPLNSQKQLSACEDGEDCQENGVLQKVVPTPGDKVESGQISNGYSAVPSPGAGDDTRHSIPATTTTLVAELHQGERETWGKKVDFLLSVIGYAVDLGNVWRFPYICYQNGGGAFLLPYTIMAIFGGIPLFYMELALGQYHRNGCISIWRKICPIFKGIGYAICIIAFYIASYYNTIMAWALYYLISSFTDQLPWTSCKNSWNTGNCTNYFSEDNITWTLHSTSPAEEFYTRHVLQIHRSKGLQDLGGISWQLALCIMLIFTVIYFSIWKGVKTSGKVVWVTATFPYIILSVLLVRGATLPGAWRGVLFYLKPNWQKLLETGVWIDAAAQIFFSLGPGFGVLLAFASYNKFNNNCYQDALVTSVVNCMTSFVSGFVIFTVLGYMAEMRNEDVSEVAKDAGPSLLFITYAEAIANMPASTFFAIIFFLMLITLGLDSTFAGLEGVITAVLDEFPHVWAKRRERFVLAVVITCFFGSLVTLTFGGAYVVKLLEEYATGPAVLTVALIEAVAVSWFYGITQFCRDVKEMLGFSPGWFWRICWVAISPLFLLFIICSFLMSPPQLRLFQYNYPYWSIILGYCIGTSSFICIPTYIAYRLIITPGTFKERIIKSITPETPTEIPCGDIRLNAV

For `CCCC(NC)C(=O)c1ccccc1` (stereo not shown) [Pentedrone, 2-(methylamino)-1-phenyl pentan-1-one], the IC50 on hSERT came to 16 µM.
Regarding `CCCC(C(=O)c1ccc2c(c1)OCO2)N1CCCC1` (stereo not shown) [MDPV, 1-(1,3-benzodioxol-5-yl)-2-pyrro lidin-1-ylpentan-1-one], the IC50 is 0.03 µM against hNET; 4.5 µM against hSERT; 40 µM in test [1] (acute exposure 30 min, read-out: Neuronal activity IC50, mean burst rate (MBR), acute); 35 µM in test [1] (acute exposure 30 min, read-out: Neuronal activity IC50, mean network burst rate (MNBR), acute); 30 µM in test [1] (acute exposure 30 min, read-out: Neuronal activity IC50, mean spike rate (MSR), acute); 61 µM in test [1] (prolonged exposure 4.5 h, read-out: Neuronal activity IC50, mean burst rate (MBR), prolonged).

Broadly, the IC50 is the concentration needed to halve the response being measured.
